pKd: −log10 of the molar value. Entries after “also recorded” stand apart in the source; their conditions may differ.
Legend:
CYP3A4 = CYP3A4 (Homo sapiens, UniProt P08684, S18F); assay: Substrate binding to CYP3A4 in Nanodiscs: UV-Vis spectral titration; details: human, recombinant CYP3A4 in POPC Nanodiscs
CYP3A4 in POPC Nanodiscs [1] = molecular target: T1, CYP3A4 in POPC Nanodiscs (Homo sapiens, UniProt P08684, S18F); assay: as above; details: for Fe^3+ Spin shift (fraction of high spin): 37 C
CYP3A4 in POPC Nanodiscs [2] = molecular target: T1, CYP3A4 in POPC Nanodiscs; assay: Product formation; format: biochemical; details: binding intermediate with 1 substrate molecule bound; 37 C, pH 7.4
CYP3A4 in POPC Nanodiscs [3] = molecular target: T1, CYP3A4 in POPC Nanodiscs; format: biochemical; details: mixture of ARVL and DND at constant molar ratio 2.9:1; one of each substrate bound

CC(C)c1c(C(=O)Nc2ccccc2)c(-c2ccccc2)c(-c2ccc(F)cc2)n1CC[C@@H]1C[C@@H](O)CC(=O)O1 [ARVL, atorvastatin lactone]
pKd (CYP3A4): 4.66
pKd (CYP3A4 in POPC Nanodiscs [1]): 6.00
Fe^3+ Spin shift (fraction of high spin) (CYP3A4 in POPC Nanodiscs [1]; binding intermediate with 1 substrate molecule bound): 22 [16 – 26] %
Fe^3+ Spin shift (fraction of high spin) (CYP3A4 in POPC Nanodiscs [1]; binding intermediate with 2 substrate molecules bound): 62 [56 – 72] %
Product formation rate (CYP3A4 in POPC Nanodiscs [2]): 13 [9.6 – 14.7] min^−1
Rate of metabolism from the mixed intermediate (CYP3A4 in POPC Nanodiscs [3]): 31 min⁻¹

CCCCc1oc2ccc(NS(C)(=O)=O)cc2c1C(=O)c1ccc(OCCCN(CCCC)CCCC)cc1 [DND, dronedarone]
pKd (CYP3A4): 5.44
Product formation rate (CYP3A4 in POPC Nanodiscs [2]): 2.5 [1.6 – 3.4] min^−1
Rate of metabolism from the mixed intermediate (CYP3A4 in POPC Nanodiscs [3]): No product of DND metabolism was detected; also recorded: completely inhibited

Reference: article PMC5800941 (Biochemistry, 2017)
